# Assay: gradient 5% acetonitrile 3 min, to 50% in 2 min, to 85% in 15 min, held 3 min, 100 µL/min
# Details: column: Zorbax Extend-C18 2.1 x 50 mm; eluents: water / acetonitrile, 0.1% formic acid
# Method in brief: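 In both positive and negative ionization mode, a quadrupole time-of-flight mass spectrometer coupled to HPLC analyzed pure standards run in mixtures of ~100 molecules. The Zorbax Extend-C18 column (2.1 × 50 mm, 1.8 μm) was operated at 100 μL/min with water and acetonitrile, each containing 0.1% formic acid. The dead volume was 40 μL and the dwell volume 900 μL. Retention time came from adduct peaks that were computationally picked and individually inspected by hand.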
row,RP-LC retention time,Structure (SMILES)
1,823 s,Cc1nc(N2CCN(c3ccccn3)CC2)nc2c1C(=O)CC(c1ccc(Cl)cc1)C2 (stereo not given)
2,807 s,CSc1ccc(-c2nc3cnccn3c2Nc2cccc(C(=O)N3CCCCC3)c2)cc1
3,817 s,CC1CCCN(S(=O)(=O)c2ccc(-n3cnc(C(=O)N4CCCC4)c3)nc2)C1 (stereo not given)
4,855 s,COc1ccc(Cc2nc3nccc(-c4ccco4)n3n2)cc1
5,852 s,COCCN1C(=O)c2ccccc2C(C(=O)Nc2ccc(OC)cc2)C12CCCC2 (stereo not given)
6,868 s,Cc1ccc(NC(=O)C2CCCN2S(=O)(=O)c2cc3c(cc2Cl)NC(=O)CO3)c(C)c1 (stereo not given)
7,1200 s,COc1ccc(NC(=O)c2csc(-c3ccc(C)n3C)n2)c(OC)c1
8,688 s,CCOC(=O)Cc1sc(Nc2c(C)n[nH]c2C)nc1-c1ccccc1
9,899 s,Cc1nc(Cn2cccc2C(=O)Nc2ccc(Cl)cc2)no1
10,614 s,CCc1noc(NC(C)=O)c1-c1ccc(OC)c(S(=O)(=O)N2CCN(c3ccccn3)CC2)c1
11,821 s,Cc1ccc(CNC(=O)C2CCN(c3ccc(SCc4ccccc4)nn3)CC2)cc1
12,776 s,Cc1ccc(NS(=O)(=O)c2cc(-c3[nH]ncc3C(=O)N3CCCC3)oc2C)cc1C
13,624 s,CCn1c(C(=O)NCCN2CCCC2)c(N2CCCC2=O)c2cc(OC)ccc21
14,678 s,COc1ccc(C2(C(=O)NCc3ccc4c(c3)ncn4C(C)C)CC2)cc1
15,772 s,CC(Oc1ccc(=O)n(-c2ccc(F)cc2)n1)C(=O)Nc1ccccc1F (stereo not given)
16,654 s,CCc1ccc2oc(C(=O)NCC(c3cccs3)N(C)C)cc(=O)c2c1 (stereo not given)
17,1220 s,COc1ccc(-c2csc(NC(=O)COc3ccccc3Cl)n2)cc1Br
18,835 s,COc1cccc(CNC(=O)Cn2c(=O)c3cc(-c4cccs4)nn3c3ncccc32)c1
19,1040 s,Cc1ccc(S(=O)(=O)N2CCC(C)(C(=O)NCc3ccccc3C)CC2)c(C)c1
20,734 s,COc1ccc(C2(C(=O)N3CCC(Cc4nc(-c5ccccc5)n[nH]4)C3)CC2)cc1 (stereo not given)
21,754 s,CCCCNC(=O)C1CCCN(C(=O)c2[nH]c(C)c(C(=O)OC(C)C)c2C)C1 (stereo not given)

row,RP-LC retention time,Structure (SMILES)
1,627 s,Cc1ccc(-c2nc3cccnc3n2CCN2CCN(C(=O)NC3CCCC3)CC2)cc1
2,573 s,C=CCN1CCN(c2ccc3nnc(CCc4nc(-c5ccccc5OC)no4)n3n2)CC1
3,871 s,COc1cc(C2CC(=O)N(CC(=O)N3CCCCC3)c3ccccc3S2)cc(OC)c1OC (stereo not given)
4,865 s,COCCn1cc(C(=O)Nc2ccc(C(C)=O)cc2)c2nn(-c3ccccc3)c(=O)c-2c1
5,1250 s,COc1ccc(-n2c(=O)c(C(=O)Nc3cccc(F)c3)c(O)c3cccnc32)cc1
6,609 s,CCN1CCN(c2cc(C)c3cc(NC(=O)COc4ccccc4)ccc3n2)CC1
7,1070 s,COc1ccc(-c2noc(-c3cccnc3N3CCN(c4ccc(OC)cc4)CC3)n2)cc1
8,857 s,Cc1noc(-c2ccc(OC3CN(C(=O)Cc4cccs4)C3)cc2)n1
9,1000 s,Cc1ccc(Cn2c(N3CCCC(C(=O)NCCc4cccs4)C3)nc3ccsc3c2=O)cc1 (stereo not given)
10,937 s,COc1cccc(C2CC(c3cccs3)=NN2C(=O)C(OC)c2ccccc2)c1O (stereo not given)
11,876 s,CCOc1ccccc1CNC(=O)c1ccc2c(c1)NC(=O)C1CCCCN21 (stereo not given)
12,920 s,CCC(C)NC(=O)Cn1c(=O)c2cnc(-c3ccc(C)cc3)nc2n(C)c1=O (stereo not given)
13,1270 s,COc1ccc(-c2noc(Cc3nc(-c4ccc(Cl)cc4)cs3)n2)cc1
14,967 s,CCOc1ccc(-c2nc(Cc3noc(-c4cccnc4)n3)c(C)o2)cc1
15,645 s,COc1nccnc1N1CCC(NC(=O)c2ccsc2)C1 (stereo not given)
16,817 s,CCN1C(=O)c2cc(C(=O)NCc3ccccc3Cl)nn2CC1(C)C(=O)NC1CCCC1 (stereo not given)
17,783 s,COc1ccc(-c2csc(Nc3cc(C)ccn3)n2)cc1
18,924 s,COc1ccc(OC)c(NC(=O)Cn2c(C)cc(-c3nnc(C4CCC4)o3)c2C)c1
19,722 s,COc1ccc(-n2nc3c(N4CCCC(C(=O)NCCc5cccs5)C4)nnc(C)c3c2C)cc1 (stereo not given)
20,885 s,COc1ccc(-c2cc3n(n2)CCCN(C(=O)Nc2ccccc2F)C3)cc1OC
21,652 s,O=C(NCCN1CCOCC1)C1CCCN(c2nccnc2Sc2ccccc2)C1 (stereo not given)

# Further lines, the molecule ahead of its results:
row,Structure (SMILES),RP-LC retention time
1,O=C(CSc1nc2ccccc2nc1SCC(=O)N1CCCC1)N1CCCC1,743 s
2,O=C(Cc1ccccc1Br)Nc1cc(-c2cccs2)no1,973 s
3,CC(C)CNC(=O)CN1CCN(Cc2ccccc2)C1=O,717 s
4,Cc1csc(-c2cc(S(=O)(=O)NCC(C)C)cn2CC(=O)N2CCCCC2)n1,926 s
5,CC1CCN(c2cc(-c3noc(C(=O)N4CCCC4)n3)ccn2)CC1,764 s
6,O=C(Cn1cnc2c(nc3n2CCCCC3)c1=O)N1CCN(Cc2ccc3c(c2)OCO3)CC1,588 s
7,O=C(NC1CCCCC1)c1ccc2c(c1)nc1n2CCN(C2CCCCC2)C1=O,796 s
8,CC1CC(=O)N(CC(=O)Nc2ccc(F)cc2F)c2ccccc2S1 (stereo not given),914 s
9,CSc1ccc(Cl)c(C(=O)N2CC(=O)Nc3ccccc32)c1,796 s
10,CCCCN(C)CCCNC(=O)C1CCN(S(=O)(=O)CCC)CC1,968 s
11,CC1(C(=O)NCc2ccccc2)CN(S(=O)(=O)c2ccccc2)CC(=O)N1C1CCCC1 (stereo not given),787 s
12,CC(C)CNC(=O)N1CC(n2cc(C(=O)N(C)C)nn2)C1,609 s
13,O=C(Nc1ccccc1Cl)C(=O)c1cn(CC(=O)N2CCOCC2)c2ccccc12,1040 s
14,O=c1c(S(=O)(=O)N2CCCCCC2)cccn1Cc1cc(F)cc(F)c1,999 s
15,CNC(=O)c1c(NC(=O)c2ccc(N(C)C)cc2)sc2c1CCC2,1030 s
16,CN1C(=O)c2cc(S(=O)(=O)NCc3ccccc3Cl)ccc2Oc2cccnc21,903 s
17,CC(C)C(=O)N1CCC(Cc2noc(C3CC3)n2)C1 (stereo not given),692 s
18,O=c1cc(Cn2nc3ccc(-c4ccc(Cl)cc4)nn3c2=O)nc2ccccn12,676 s
19,COCCNCc1ccc(-c2cccc(C(F)(F)F)c2)o1,662 s
20,O=C(NC1CCCCC1)C1CCCN(S(=O)(=O)c2c[nH]c(C(=O)N3CCCCCC3)c2)C1 (stereo not given),866 s
21,CNC(=O)c1sc(-c2ccccc2F)nc1C,772 s
22,Cc1cc(C)cc(NC(=O)N(C)CC2CCOCC2)c1,776 s
23,COC(=O)c1ccccc1Nc1c(-c2ccccn2)nc2cnccn12,816 s
24,CCCN(CCC)C1CCc2cccc(OC)c2C1 (stereo not given),762 s

row,Structure (SMILES),RP-LC retention time
1,Cc1ccccc1-c1noc(Cn2c(=O)n(-c3cccc(F)c3)c(=O)c3sccc32)n1,1030 s
2,Nc1cccc(C(=O)CC2(O)C(=O)Nc3ccc(Cl)cc32)c1 (stereo not given),627 s
3,Cc1cnc(C2CC2)n1CCNC(=O)C1CC(=O)N(C2CCCCC2)C1 (stereo not given),594 s
4,COc1ccccc1N1C(=O)CC(N2CCC(C(N)=O)CC2)C1=O (stereo not given),547 s
5,Cc1cc(Cl)ccc1OCC(=O)N1CCn2c(nnc2C(C)C)C1,665 s
6,CS(=O)(=O)N1CCCc2cc(C(=O)NCCN3CCOCC3)ccc21,573 s
7,CCOCCCNC(=O)Nc1ccc2c(c1)CCN2S(=O)(=O)c1ccccc1,803 s
8,Brc1ccc(OCc2nc3c4ccccc4ncn3n2)cc1,981 s
9,CCn1c(C(=O)NCCC(C)C)cc2c(=O)oc3ccccc3c21,751 s
10,O=C(Nc1ccc(Nc2ccncc2)cc1)c1ccc([N+](=O)[O-])cc1,1250 s
11,Cc1[nH]c(C(=O)Nc2cccc(Br)c2)c(C)c1S(=O)(=O)N1CCCC1,971 s
12,CCOC(=O)c1cnn2c(C(F)(F)F)cc(-c3ccc(F)cc3)nc12,1110 s
13,CC(=O)/C=C1\C(=O)N(C)c2ccccc21,858 s
14,N#CCCN1CCN(c2ccc(NC(=O)C3CC3)c(C(=O)O)c2)CC1,579 s
15,Cc1cn(C)c(CC(=O)NCCCN2CCOCC2)c1C(=O)O,571 s
16,CCOC(=O)N1CCC(NC(=O)C(=O)NCCC2=CCCCC2)CC1,842 s
17,CCn1c(N2CCC(C(=O)NC3CCCCC3)CC2)cc(=O)n(C)c1=O,784 s
18,CCOc1ccccc1NC(=O)N1CCC2(CC1)NC(=O)c1ccccc1N2C,807 s
19,Cc1c(Cl)cccc1NS(=O)(=O)c1cc(-c2nc(C(C)(C)C)cs2)cs1,1340 s
20,O=C(CN1C(=O)COc2ccc(C(=O)N3CCN(c4ccccn4)CC3)cc21)N1CCCC1,572 s
21,Clc1ccc(-c2ccc(CNCC3CCCO3)o2)cc1 (stereo not given),688 s
22,O=C1CC(c2ccccc2Cl)Cc2nc(N3CCN(Cc4ccc5c(c4)OCO5)CC3)ncc21 (stereo not given),765 s
23,COc1ccc(CCC(=O)N2CCC3(C2)C(=O)N(C)c2ccc(OC)cc23)cc1 (stereo not given),800 s
24,CCn1c(CN(C)C(=O)Nc2ccc(Br)cc2F)nc2cc(C(=O)N(C)C)ccc21,650 s

# Source: the METLIN SMRT retention time set (Domingo-Almenara et al. 2019)
